From patent US8809321B2, “Diaryl ether linked pyrrolo [2,1-c][1,4] benzodiazepine hybrids and process for the preparation thereof” (Council of Scientific and Industrial Research, priority 2011, dated 2014)
Where two headings read alike, the source gives them in different places.

What was measured:
[1] = test system: PC3 prostrate cancer cell line; test: MTT assay, 48 h continuous drug exposure, PC3; format: cell-based, human; details: read-out: GI50 PC3
Procedure: (§1) For each compound, dose response curves for each cell line were measured at a minimum of five concentrations at 10 fold dilutions. A protocol of 48 h continuous drug exposure was used and a MTT assay was used to estimate cell viability or growth. The percent of cell growth (GI50) compared with the control was calculated.

[2] = test system: duplex-form calf thymus DNA (CT-DNA); test: Thermal denaturation studies with calf thymus DNA (DNA binding affinity); details: [PBD]:[DNA] molar ratio 1:5, CT-DNA 100 μM, ligand 20 μM, sodium phosphate buffer pH 7.00; for (ΔTm ° C.) after incubation at 37° C. for 0 h: 0 h at 37° C.; for (ΔTm ° C.) after incubation at 37° C. for 18 h: 18 h at 37° C.
Procedure: DNA Binding Affinity of Diaryl Ether Linked PBD Hybrids: Compounds have been subjected to thermal denaturation studies with duplex-form calf thymus DNA (CT-DNA) using a modification of a reported procedure (Newman, M. S. Carcinog-compr. Surv. 1976, 1, 203; ([…].; Loy, M.; Hoffman, Carcinog-compr. […] The DNA-PBD solutions have been incubated at 37° C. for 0 and 18 h prior to analysis. […] DNA helix→coil transition temperatures (Tm) have been obtained from the maxima in the d(A260)/dT derivative plots. […] The DNA binding activity for these novel C8-linked diaryl ether PBD hybrids has been examined by thermal denaturation studies using calf thymus (CT) DNA. […] The data for the compounds are included in Table 1 for comparison.

[3] = test system: Hop62 lung cancer cell line; test: MTT assay, 48 h continuous drug exposure, Hop62; format: cell-based, human; details: read-out: GI50 Hop62
Procedure: as §1

[4] = test system: A2780 ovarian cancer cell line; test: MTT assay, 48 h continuous drug exposure, A2780; format: cell-based, human; details: read-out: GI50 A2780
Procedure: as §1

[5] = test system: ZR-751 breast cancer cell line; test: MTT assay, 48 h continuous drug exposure, ZR-751; format: cell-based, human; details: read-out: GI50 ZR-751
Procedure: as §1

[6] = test system: Gurav oral cancer cell line; test: MTT assay, 48 h continuous drug exposure, Gurav; format: cell-based, human; details: read-out: GI50 Gurav
Procedure: as §1

[7] = test system: DWD oral cancer cell line; test: MTT assay, 48 h continuous drug exposure, DWD; format: cell-based, human; details: read-out: GI50 DWD
Procedure: as §1

[8] = test system: A549 lung cancer cell line; test: MTT assay, 48 h continuous drug exposure, A549; format: cell-based, human
Procedure: (§2) Some of the C8-linked diaryl ether-PBD hybrids have been tested against eleven human tumour cell lines derived from seven cancer types (lung cancer, colon cancer, cervix, ovarian cancer, oral cancer, prostate cancer and breast cancer) as per Tata protocol as shown in Table 2. For each compound, dose response curves for each cell line were measured at a minimum of five concentrations at 10 fold dilutions. A protocol of 48 h continuous drug exposure was used and a MTT assay was used to estimate cell viability or growth. The percent of cell growth (GI50) compared with the control was calculated. Some of the compounds have been evaluated for their in vitro cytotoxicity in eleven cell lines from seven human cancer types. The results are expressed as GI50 determined relative to that of untreated control cells (Table-2).

[9] = test system: MCF7 breast cancer cell line; test: MTT assay, 48 h continuous drug exposure, MCF7; format: cell-based, human
Procedure: as §2

[10] = test system: Colo205 colon cancer cell line; test: MTT assay, 48 h continuous drug exposure, Colo205; format: cell-based, human
Procedure: as §2

[11] = test system: SiHa Cervix cancer cell line; test: MTT assay, 48 h continuous drug exposure, SiHa; format: cell-based, human; details: read-out: GI50 SiHa
Procedure: as §1

[12] = prostrate cancer cell line, 48 h exposure, MTT
[13] = lung cancer cell line, 48 h exposure, MTT
[14] = ovarian cancer cell line, 48 h exposure, MTT
[15] = breast cancer cell line, 48 h exposure, MTT
[16] = oral cancer cell line, 48 h exposure, MTT
[17] = Cervix cancer cell line, 48 h exposure, MTT
[18] = Homo sapiens, A549, 48 h exposure
[19] = Homo sapiens, MCF7, 48 h exposure
[20] = Homo sapiens, COLO 205, 48 h exposure

Row | GI50 [8, 18] | GI50 [9, 19] | GI50 [10, 20] | SMILES | GI50 [1, 12] | (ΔTm ° C.) after incubation at 37° C. for 0 h [2] | (ΔTm ° C.) after incubation at 37° C. for 18 h [2] | GI50 [3, 13] | GI50 [4, 14] | GI50 [5, 15] | GI50 [6, 16] | GI50 [7, 16] | GI50 ([8]; 48 h exposure) | GI50 ([9]; 48 h exposure) | GI50 ([10]; 48 h exposure) | GI50 [11, 17] | other results
1 |  |  |  | COc1cc2c(cc1OCCCCCN1CCN(C(=O)c3ccc(Oc4cc(OC)c(OC)c(OC)c4)c(N)c3)CC1)N=C[C@@H]1CCCN1C2=O [24c] | 170 nM | 4.5 °C | 6.0 °C | 2260 nM | 2000 nM | 180 nM | 150 nM | 160 nM | 170 nM | 170 nM | 540 nM | 2500 nM | 
2 |  |  |  | COc1ccc(Oc2ccc(OCCCCCOc3cc4c(cc3OC)C(=O)N3CCC[C@H]3C=N4)cc2[N+](=O)[O-])cc1OC [20c, 7-Methoxy-(8-3-[4-(3,4-dimethoxyphenoxy)-3-nitrophenoxy]pentyloxy)-(11aS)-1,2,3,11a-tetrahydro-5H-pyrrolo[2,1-c][1,4]benzodiazepin-5-one] | 160 nM | 4.9 °C | 5.6 °C | 140 nM | 140 nM | 130 nM | 1240 nM | 130 nM | 150 nM | 140 nM | 130 nM | 2470 nM | 
3 |  |  |  | COc1ccc(Oc2ccc(OCCCCCOc3cc4c(cc3OC)C(=O)N3CCC[C@H]3C=N4)cc2I)cc1 [16c] | 2120 nM | 3.6 °C | 4.6 °C | 1500 nM | 2300 nM | 3300 nM | 2230 nM | 2600 nM | 2700 nM | 2100 nM | 2220 nM | 1420 nM | 
4 |  |  |  | COc1ccc(Oc2cc(OCCCCCOc3cc4c(cc3OC)C(=O)N3CCC[C@H]3C=N4)ccc2N)cc1 [10g, 7-Methoxy-(8-5-[4-amino-3-(4-methoxyphenoxy)phenoxy]pentyloxy)-(11aS)-1,2,3,11a-tetrahydro-5H-pyrrolo[2,1-c][1,4]benzodiazepin-5-one] | 2840 nM | 2.9 °C | 3.6 °C | 2100 nM | 2300 nM | 3100 nM | 2430 nM | 2400 nM | 2840 nM | 2300 nM | 1500 nM | 1560 nM | 
5 | > 50000 nM | > 50000 nM | > 50000 nM | COc1ccc(Oc2ccc(O)cc2N)cc1OC [5b, 3-amino-4-(3,4-dimethoxyphenoxy)phenol, reference compound] |  | 0.1 °C | 0.2 °C |  |  |  |  |  |  |  |  |  | 
6 |  |  |  | COc1cc2c(cc1OCCCCCOc1cccc(Oc3cc(OC)c(OC)c(OC)c3)c1[N+](=O)[O-])N=C[C@@H]1CCCN1C2=O [21g, 7-Methoxy-(8-3-[3-(3,4,5-trimethoxyphenoxy)-2-nitrophenoxy]pentyloxy)-(11aS)-1,2,3,11a-tetrahydro-5H-pyrrolo[2,1-c][1,4]benzodiazepin-5-one] | 190 nM | 4.9 °C | 6.2 °C | 2130 nM | 2100 nM | 180 nM | 160 nM | 170 nM | 2020 nM | 2300 nM | 170 nM | 2210 nM | 
7 |  |  |  | COc1cc2c(cc1OCCCCCOc1ccc(Oc3cc(OC)c(OC)c(OC)c3)c([N+](=O)[O-])c1)N=C[C@@H]1CCCN1C2=O [21c, 7-Methoxy-(8-3-[4-(3,4,5-timethoxyphenoxy)-3-nitrophenoxy]pentyloxy)-(11aS)-1,2,3,11a-tetrahydro-5H-pyrrolo[2,1-c][1,4]benzodiazepin-5-one] | 1580 nM | 3.9 °C | 5.1 °C | 3100 nM | 1560 nM | 1600 nM | 2860 nM | 2130 nM | 2500 nM | 1850 nM | 2510 nM | 1260 nM | 
8 |  |  |  | COc1ccc(Oc2cc(OCCCCCOc3cc4c(cc3OC)C(=O)N3CCC[C@H]3C=N4)ccc2N)cc1OC [11g, 7-Methoxy-(8-5-[4-amino-3-(3,4-dimethoxyphenoxy)phenoxy]pentyloxy)-(11aS)-1,2,3,11a-tetrahydro-5H-pyrrolo[2,1-c][1,4]benzodiazepin-5-one] | 2250 nM | 4.1 °C | 5.5 °C | 2430 nM | 170 nM | 2500 nM | 160 nM | 180 nM | 2010 nM | 160 nM | 170 nM | 1990 nM | 
9 |  |  |  | COc1ccc(Oc2ccc(C(=O)N3CCN(CCCCCOc4cc5c(cc4OC)C(=O)N4CCC[C@H]4C=N5)CC3)cc2N)cc1OC [23c] | 170 nM | 3.6 °C | 4.5 °C | 2280 nM | 180 nM | 190 nM | 120 nM | 150 nM | 180 nM | 150 nM | 160 nM | 2470 nM | 
10 | < 100 nM | 130 nM | < 100 nM | COc1cccc2c1C(=O)c1c(O)c3c(c(O)c1C2=O)C[C@@](O)(C(=O)CO)C[C@@H]3O[C@H]1C[C@H](N)[C@H](O)[C@H](C)O1 [ADR, adriamycin, reference compound] |  |  |  |  |  |  |  |  |  |  |  |  | GI50 ([1]; Homo sapiens, prostrate cancer cell line, 48 h exposure, MTT): 160 nM; GI50 ([3]; Homo sapiens, HOP-62, lung cancer cell line, 48 h exposure, MTT): 150 nM; GI50 ([4]; Homo sapiens, A2780, ovarian cancer cell line, 48 h exposure, MTT): < 100 nM; GI50 ([5]; Homo sapiens, ZR-75-1, breast cancer cell line, 48 h exposure, MTT): 110 nM; GI50 ([6]; Homo sapiens, Gurav, oral cancer cell line, 48 h exposure, MTT): < 100 nM; GI50 ([7]; Homo sapiens, oral cancer cell line, 48 h exposure, MTT): 120 nM; GI50 ([11]; Homo sapiens, SiHa, Cervix cancer cell line, 48 h exposure, MTT): 160 nM
11 |  |  |  | COc1ccc(Oc2ccc(OCCCCCOc3cc4c(cc3OC)C(=O)N3CCC[C@H]3C=N4)cc2I)cc1OC [17c] | 2560 nM | 3.9 °C | 4.8 °C | 1120 nM | 2800 nM | 3800 nM | 2270 nM | 2700 nM | 2450 nM | 2600 nM | 2260 nM | 2350 nM | 
12 | > 50000 nM | > 50000 nM | > 50000 nM | COc1ccc(Oc2ccc(C(=O)N3CCNCC3)cc2N)cc1OC [7b, [3-amino-4-(3,4-dimethoxyphenoxy)phenyl](piperazino)methanone, reference compound] |  | 0.2 °C | 0.5 °C |  |  |  |  |  |  |  |  |  | 

Row | SMILES | GI50 [8, 18] | GI50 [9, 19] | GI50 [10, 20] | GI50 [1, 12] | (ΔTm ° C.) after incubation at 37° C. for 0 h [2] | (ΔTm ° C.) after incubation at 37° C. for 18 h [2] | GI50 [3, 13] | GI50 [4, 14] | GI50 [5, 15] | GI50 [6, 16] | GI50 [7, 16] | GI50 ([8]; 48 h exposure) | GI50 ([9]; 48 h exposure) | GI50 ([10]; 48 h exposure) | GI50 [11, 17] | other results
13 | C1=CC2=CN=c3ccccc3=CN2C1 [DC-81, pyrrolo[2,1-c][1,4]benzodiazepine, reference compound] | 160 nM | 170 nM | 110 nM |  | 0.3 °C | 0.7 °C |  |  |  |  |  |  |  |  |  | GI50 ([1]; Homo sapiens, 48 h): 170 nM; GI50 ([3]; Homo sapiens, HOP-62, 48 h): 170 nM; GI50 ([4]; Homo sapiens, A2780, 48 h): 150 nM; GI50 ([5]; Homo sapiens, ZR-75-1, 48 h): 160 nM; GI50 ([6]; Homo sapiens, Gurav, 48 h): 1490 nM; GI50 ([7]; Homo sapiens, 48 h): 200 nM; GI50 ([11]; Homo sapiens, SiHa, 48 h): 140 nM
